Key:
Pituitary cells = experiment: Pituitary Cell Culture Assay for Growth Hormone Secretion; type: cell-based, rat (male Sprague-Dawley); settings: 0.25 h, read-out: GH secretion EC50; heading: GH secretion EC50; rat anterior pituitary cells, 15 min at 37° C.; Examples Part 1
From the text: Thirty-two 250 g male Sprague-Dawley rats were used for each assay. The animals were killed by decapitation and anterior pituitaries were removed and placed into ice cold culture medium. The pituitaries were sectioned into eighths and enzymatically digested using trypsin (Sigma Chemical) to weaken connective tissue. Pituitary cells were dispersed by mechanical agitation, collected, pooled and then seeded into 24-well plates (300,000 cells/well). After 4 days of culture, the cells formed an even monolayer. Cells were then washed with medium and challenged to secrete GH by the addition of GH secretagogues to the medium. After 15 min at 37° C., the medium was removed and stored frozen until radioimmunoassays for rat GH were performed. Doses of secretagogue were added in quadruplicate. Compounds disclosed herein are active in the assay as described. Both EC50 and efficacy values were calculated by the 4-parameter logistic equation. Such values were pooled and represented as mean +/- standard error, when appropriate.

heart failure = settings: cited from earlier work

Compound | EC50 (Pituitary cells) | mortality in patients (heart failure)
COC(=O)[C@@H]1CCCN1C(=O)C(c1ccccc1)n1cnc(NC(=O)[C@@H](COCc2ccccc2)NC(=O)C(C)(C)N)c1 (stereo partly drawn) [Example 6] | 5.53 µM | –
COC(=O)[C@@H]1CCCN1C(=O)C(c1ccccc1)n1cnc(NC(=O)[C@H](COCc2ccccc2)NC(=O)C(C)(C)N)c1 (stereo partly drawn) [Example 8] | 2.39 µM | –
COc1ccccc1OCCNCC(O)COc1cccc2[nH]c3ccccc3c12 (stereo not drawn) [Carvedilol] | – | dramatic reductions in mortality in patients

Source: patent publication US6329342A, “Treatment of congestive heart failure with growth hormone secretagogues” (Eli Lilly and Company, priority 2000, dated 2001)
